{"source": "PubChem BioAssay (NCI)", "assay_in_all_cases": "NCI tumour cell line growth inhibition, 48 h", "key": {"[1]": {"test_system": "SN12C renal"}, "[2]": {"test_system": "NCI-H226 lung"}, "[3]": {"test_system": "DU-145 prostate"}, "[4]": {"test_system": "OVCAR-5 ovarian"}, "[5]": {"test_system": "RPMI-8226 leukemia"}, "[6]": {"test_system": "BT-549 breast"}, "[7]": {"test_system": "SNB-19 CNS"}, "[8]": {"test_system": "MCF7 breast"}, "[9]": {"test_system": "UO-31 renal"}, "[10]": {"test_system": "SF-539 CNS"}, "[11]": {"test_system": "HS 578T breast"}, "[12]": {"test_system": "IGROV1 ovarian"}, "[13]": {"test_system": "K-562 leukemia"}, "[14]": {"test_system": "SK-OV-3 ovarian"}, "[15]": {"test_system": "SF-268 CNS"}, "[16]": {"test_system": "SF-295 CNS"}, "[17]": {"test_system": "CCRF-CEM leukemia"}, "[18]": {"test_system": "MDA-MB-231 breast"}, "[19]": {"test_system": "SK-MEL-2 melanoma"}, "[20]": {"test_system": "T-47D breast"}, "[21]": {"test_system": "KM12 colon"}, "[22]": {"test_system": "LOX IMVI melanoma"}, "[23]": {"test_system": "MALME-3M melanoma"}, "[24]": {"test_system": "HOP-62 NSCLC"}, "[25]": {"test_system": "NCI/ADR-RES ovarian"}, "[26]": {"test_system": "UACC-62 melanoma"}, "[27]": {"test_system": "M14 melanoma"}, "[28]": {"test_system": "NCI-H23 lung"}, "[29]": {"test_system": "SR leukemia"}, "[30]": {"test_system": "U251 CNS"}}, "note": "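Step 1: Grow cells in 96-well plates. Step 2: Expose to compound for 48 hours at 5 concentrations. Step 3: Interpolate endpoints linearly; if unreached, use highest concentration. GI50 is the concentration that inhibits growth by half. TGI marks complete inhibition of growth.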"}
{"molecule": "CN1CCN(c2ccc(Nc3nc(NCCCNC(=O)C4CCCCC4)c4sccc4n3)cc2)CC1", "values": [{"measurement": "GI50", "setting": "[1]", "value": 14.2, "unit": "µM"}, {"measurement": "TGI", "setting": "[1]", "value": 29.4, "unit": "µM"}, {"measurement": "GI50", "setting": "[2]", "value": 12.6, "unit": "µM"}, {"measurement": "TGI", "setting": "[2]", "value": 26.3, "unit": "µM"}, {"measurement": "GI50", "setting": "[3]", "value": 14.9, "unit": "µM"}, {"measurement": "TGI", "setting": "[3]", "value": 30.5, "unit": "µM"}, {"measurement": "GI50", "setting": "[4]", "value": 16.1, "unit": "µM"}, {"measurement": "TGI", "setting": "[4]", "value": 34.6, "unit": "µM"}, {"measurement": "GI50", "setting": "[5]", "value": 3.92, "unit": "µM"}, {"measurement": "TGI", "setting": "[5]", "value": 19.9, "unit": "µM"}, {"measurement": "GI50", "setting": "[6]", "value": 13.3, "unit": "µM"}, {"measurement": "TGI", "setting": "[6]", "value": 27.3, "unit": "µM"}, {"measurement": "GI50", "setting": "[7]", "value": 22.1, "unit": "µM"}, {"measurement": "TGI", "setting": "[7]", "value": 47.1, "unit": "µM"}, {"measurement": "GI50", "setting": "[8]", "value": 10, "unit": "µM"}, {"measurement": "TGI", "setting": "[8]", "value": 24, "unit": "µM"}, {"measurement": "GI50", "setting": "[9]", "value": 11.9, "unit": "µM"}, {"measurement": "TGI", "setting": "[9]", "value": 24.6, "unit": "µM"}, {"measurement": "GI50", "setting": "[10]", "value": 3.15, "unit": "µM"}, {"measurement": "TGI", "setting": "[10]", "value": 12.8, "unit": "µM"}, {"measurement": "GI50", "setting": "[11]", "value": 12.8, "unit": "µM"}, {"measurement": "TGI", "setting": "[11]", "value": 36.2, "unit": "µM"}, {"measurement": "GI50", "setting": "[12]", "value": 14, "unit": "µM"}, {"measurement": "TGI", "setting": "[12]", "value": 30.8, "unit": "µM"}, {"measurement": "GI50", "setting": "[13]", "value": 2.72, "unit": "µM"}, {"measurement": "TGI", "setting": "[13]", "value": 47, "unit": "µM"}, {"measurement": "GI50", "setting": "[14]", "value": 23.4, "unit": "µM"}, {"measurement": "TGI", "setting": "[14]", "value": 59.2, "unit": "µM"}, {"measurement": "GI50", "setting": "[15]", "value": 10.4, "unit": "µM"}, {"measurement": "TGI", "setting": "[15]", "value": 40.7, "unit": "µM"}, {"measurement": "GI50", "setting": "[16]", "value": 12.9, "unit": "µM"}, {"measurement": "TGI", "setting": "[16]", "value": 26.3, "unit": "µM"}, {"measurement": "GI50", "setting": "[17]", "value": 3.77, "unit": "µM"}, {"measurement": "TGI", "setting": "[17]", "value": 37.6, "unit": "µM"}, {"measurement": "GI50", "setting": "[18]", "value": 13.2, "unit": "µM"}, {"measurement": "TGI", "setting": "[18]", "value": 30.8, "unit": "µM"}, {"measurement": "GI50", "setting": "[19]", "value": 18.7, "unit": "µM"}, {"measurement": "TGI", "setting": "[19]", "value": 33.6, "unit": "µM"}, {"measurement": "GI50", "setting": "[20]", "value": 11.4, "unit": "µM"}, {"measurement": "TGI", "setting": "[20]", "value": 37.9, "unit": "µM"}, {"measurement": "GI50", "setting": "[21]", "value": 19.4, "unit": "µM"}, {"measurement": "TGI", "setting": "[21]", "value": 44.9, "unit": "µM"}, {"measurement": "GI50", "setting": "[22]", "value": 10.7, "unit": "µM"}, {"measurement": "TGI", "setting": "[22]", "value": 23.1, "unit": "µM"}, {"measurement": "GI50", "setting": "[23]", "value": 7.31, "unit": "µM"}, {"measurement": "TGI", "setting": "[23]", "value": 19.8, "unit": "µM"}, {"measurement": "GI50", "setting": "[24]", "value": 18.2, "unit": "µM"}, {"measurement": "TGI", "setting": "[24]", "value": 36.3, "unit": "µM"}, {"measurement": "GI50", "setting": "[25]", "value": 21.1, "unit": "µM"}, {"measurement": "TGI", "setting": "[25]", "value": 54.5, "unit": "µM"}, {"measurement": "GI50", "setting": "[26]", "value": 15.1, "unit": "µM"}, {"measurement": "TGI", "setting": "[26]", "value": 28.6, "unit": "µM"}, {"measurement": "GI50", "setting": "[27]", "value": 4.23, "unit": "µM"}, {"measurement": "TGI", "setting": "[27]", "value": 16, "unit": "µM"}, {"measurement": "GI50", "setting": "[28]", "value": 14.1, "unit": "µM"}, {"measurement": "TGI", "setting": "[28]", "value": 29.1, "unit": "µM"}, {"measurement": "GI50", "setting": "[29]", "value": 2.13, "unit": "µM"}, {"measurement": "TGI", "setting": "[29]", "value": 6.3, "unit": "µM"}, {"measurement": "GI50", "setting": "[30]", "value": 4.64, "unit": "µM"}]}
